According to US8232414B2, “Polymorphic form of rotigotine and process for production” (UCB Pharma GmbH, priority 2007, dated 2012):

Columns and labels:
[1] = Solubility in EtOH at room temperature; assay type: physicochemical
[2] = Thermodynamic stability from DSC (melting point, enthalpy of fusion; Burger-Ramberger rules); assay type: physicochemical; conditions: heating rate 10° C./min, 30° C. to 140° C., Burger-Ramberger rules applied
From the text: Polymorph form (II) of rotigotine can be further characterized and distinguished from form (I) by differential scanning calorimetry (DSC). A DSC thermogram of form (II) is provided in FIG. 5, and was obtained using DSC techniques known to those of skill in the art. One of skill in the art would readily be able to determine the conditions necessary to obtain a DSC thermogram of form (II). A variety of differential scanning calorimeters are available to those of skill in the art and include the Differential Scanning Calorimeter of Mettler Toledo (DSC822e) using temperatures of about 25° C. to about 250° C., in particular about 30° C. to about 140° C. and temperature increases at various rates including 1° C./min, 10° C./min, 20° C./min, among other instruments and conditions. One skilled in the art would recognize that the peak positions in the DSC thermogram can vary depending upon kinetic factors such as, for example, heating rate and particle size. Thermal behavior investigations of rotigotine of polymorphic form (I) (batch 1608726) and of polymorphic form (II) (batch 7769396) were performed on a Mettler Toledo DSC system and on a TA instrument (Q-1000). The analyses were carried out with a heating rate of 10° C./min in pierced aluminum crucibles in a temperature range from 30° C. to 140° C.

solubility in EtOH [1]	solubility in EtOH relative to polymorphic form (I) ([1]; form (II) versus form (I))	SMILES	thermodynamic stability relative to form (I) [2]	thermodynamic stability relative to form (I) ([2]; listed as form (II))
60 to 100 mg/mL	at least five times lower	CCCN(CCc1cccs1)[C@H]1CCc2c(O)cccc2C1 [polymorphic form (II), (−)-5,6,7,8-tetrahydro-6-[propyl-[2-(2-thienyl)ethyl]amino]-1-naphthalenol]	thermodynamically more stable than polymorphic form (I) at all considered temperatures	thermodynamically more stable than form (I) at any temperature considered
about 500 mg/ml	–	CCCN(CCc1cccs1)[C@H]1CCc2c(O)cccc2C1 [polymorphic form (I), (−)-5,6,7,8-tetrahydro-6-[propyl-[2-(2-thienyl)ethyl]amino]-1-naphthalenol, reference compound]	–	–
